# Columns and labels:
# HUVECs = assay: Cell viability assay (MTS); assay type: cell-based, Human; details: 24 h incubation, n = 3
# Experimental: Cell viability was assessed using the MTS assay (Promega). Briefly, HUVECs were seeded at 5000 cells/well in triplicate in a 96-well plate. When the density of the cells reached approximately 80 %, MLT at different concentrations was added, and the cells were incubated for 24 h. Then, 20 μL of MTS reagent was added to each well, followed by incubated for 2 h. Absorbance was measured at 490 nm using a microplate reader.
# [1] = In vivo and ex vivo fluorescence imaging (biodistribution, blood and lung retention); parameters: species or system C57BL/6 mice
# Experimental: To evaluate the biodistribution and lung targeting of MLT and M-pLNP, two fluorescence imaging experiments were performed in a BLM-induced PF model. In the first study, normal and PF mice (n = 6) received a single intraperitoneal injection of MLT-RhB (or PBS control), and were euthanized 30 min later for collection of major organs. In the second study, PF mice were randomly divided into two groups receiving either MLT-RhB or M-pLNP-RhB. Comprehensive in vivo whole-body fluorescence imaging was performed at multiple time points (10 min, 30 min, 1 h, 3 h and 6 h) after administration. Additionally, ex vivo analysis was conducted by collecting blood samples and lung tissues at […] critical time points (10 min, 30 min, 1 h, 6 h, 12 h, and 24 h). All imaging was performed using an IVIS Lumina XRMS system, in vivo and ex vivo samples were imaged through RhB channels (Ex/Em = 545/570 nm). Mean fluorescence intensity was used to quantitatively assess tissue distribution and lung accumulation.
# NRP-1 receptor on HUVECs = assay: In vitro cell targeting (uptake of MLT-RhB, flow cytometry and confocal imaging); assay type: cell-based, Human; details: flow cytometry; HUVECs with TGF-β1 10 ng/mL 48 h; MLT-RhB 2 μg/mL 1 h; n = 3
# Experimental: To assess the NRP-1 receptor-targeting ability of MLT, HUVECs were seeded into 96-well plates at a density of 1.5 × 10^4 cells per well and cultured overnight in complete growth medium. TGF-β1 (10 ng/mL) was added to all groups except the control group and incubated for 48 h. Subsequently, each group was treated with the RPARPAR peptide (0.5 mM) for 1 h, followed by the addition of MLT-RhB (2 μg/mL) for an additional hour. For flow cytometry, cells were processed and analyzed using a flow cytometer (Dakewe Biotech Co., Ltd., China), and data were analyzed with FlowJo software (FlowJo, Ashland, OR, USA). For immunofluorescence, following the same treatment protocol, cells were fixed with 4 % paraformaldehyde and immunostained. NRP-1 was detected using an anti-NRP-1 primary antibody and an Alexa Fluor® 647-conjugated secondary antibody. Nuclei were stained with DAPI. Imaging was performed using a SpinSR10 spinning disk confocal super-resolution microscope (Olympus, Japan) with the following excitation wavelengths: 405 nm for DAPI; 535 nm for RhB; and 640 nm for NRP-1.
# [2] = RhB-labeled, single i.p. injection, PF mice, ex vivo lung fluorescence, n = 3
Compound,concentration at which MLT started to induce cellular toxicity (HUVECs),"time within which the blood fluorescence signal was nearly undetectable ([1]; RhB-labeled, single i.p. injection, 15 nmol RhB equivalent per mouse, PF mice, blood samples)","time within which the peritoneal fluorescence signal was substantially weakened ([1]; RhB-labeled, single i.p. injection, 15 nmol RhB equivalent per mouse, PF mice, in vivo imaging)","time by which lung fluorescence reached near-background levels (clearance) [1, 2]","time of peak lung accumulation [1, 2]",mean fluorescence intensity (MFI) of RhB in TGF-β1 group vs control group (uptake) (NRP-1 receptor on HUVECs),"lung radiant efficiency, PF lungs vs control ([1]; MLT-RhB single intraperitoneal injection, ex vivo imaging 30 min post-injection, PF vs normal mice, n = 3)"
"CC[C@H](C)[C@H](NC(=O)CN)C(=O)NCC(=O)N[C@@H](C)C(=O)N[C@H](C(=O)N[C@@H](CC(C)C)C(=O)N[C@@H](CCCCN)C(=O)N[C@H](C(=O)N[C@@H](CC(C)C)C(=O)N[C@H](C(=O)N[C@H](C(=O)NCC(=O)N[C@@H](CC(C)C)C(=O)N1CCC[C@H]1C(=O)N[C@@H](C)C(=O)N[C@@H](CC(C)C)C(=O)N[C@H](C(=O)N[C@@H](CO)C(=O)N[C@@H](Cc1c[nH]c2ccccc12)C(=O)N[C@H](C(=O)N[C@@H](CCCCN)C(=O)N[C@@H](CCCNC(=N)N)C(=O)N[C@@H](CCCCN)C(=O)N[C@@H](CCCNC(=N)N)C(=O)N[C@@H](CCC(N)=O)C(=O)N[C@@H](CCC(N)=O)C(N)=O)[C@@H](C)CC)[C@@H](C)CC)[C@@H](C)O)[C@@H](C)O)C(C)C)C(C)C [MLT, Melittin]",8 µg/mL,≤ 6 h,30 min,≤ 6 h,30 min,–,–
MLT-RhB: Rhodamine B-labeled MLT,–,–,–,–,–,significantly higher than that in the control group,~1.5 fold
